{
  "source": "ChEMBL document CHEMBL5329202",
  "about": "“New aryl-/heteroarylpiperazine derivatives of 1,7-dimethyl-8,9-diphenyl-4-azatricyclo[5.2.1.02,6]dec-8-ene-3,5,10-trione: Synthesis and preliminary studies of biological activities” (Bioorg Med Chem, 2023)",
  "key": {"PC-3": {"system": "PC-3", "test": "Antiproliferative activity against human PC-3 cells assessed as decrease in IL-6 level at IC50 measured after 72 hrs by ELISA assay relative to control", "assay_type": "functional", "parameters": "scale not given: the % may be the effect or the level left"}, "[1]": {"target": "5-hydroxytryptamine receptor 2A (Rattus norvegicus) (UniProt P14842)", "sequence (P14842 whole entry)": "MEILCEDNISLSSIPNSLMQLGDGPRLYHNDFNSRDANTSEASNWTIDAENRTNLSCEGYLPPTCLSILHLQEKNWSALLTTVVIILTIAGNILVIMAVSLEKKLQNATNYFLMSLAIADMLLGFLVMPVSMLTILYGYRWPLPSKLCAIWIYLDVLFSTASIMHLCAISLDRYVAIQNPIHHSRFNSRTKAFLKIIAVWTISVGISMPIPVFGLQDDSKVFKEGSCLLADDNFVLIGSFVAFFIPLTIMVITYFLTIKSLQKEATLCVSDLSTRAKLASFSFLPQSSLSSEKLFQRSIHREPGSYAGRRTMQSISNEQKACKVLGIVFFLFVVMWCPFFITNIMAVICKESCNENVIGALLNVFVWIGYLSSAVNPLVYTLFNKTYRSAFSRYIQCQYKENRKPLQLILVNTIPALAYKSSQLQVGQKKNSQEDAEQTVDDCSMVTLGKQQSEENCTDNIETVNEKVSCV", "test": "Displacement of [3H]ketanserin from Sprague-Dawley rat 5-HT2A receptor measured after 60 mins by competitive binding assay"}},
  "note": "Calls of active or inactive are those of the source. The rule behind the calls is not given here.",
  "data": [
    {"molecule": "CC12C(=O)C(C)(C(c3ccccc3)=C1c1ccccc1)C1C(=O)N(CCCCN3CCN(c4cccc(Cl)c4)CC3)C(=O)C12", "note": "(configuration not stated)", "values": [
      {"measurement": "Activity", "setting": "PC-3", "result": 51, "unit": "%"}
    ]},
    {"molecule": "CC12C(=O)C(C)(C(c3ccccc3)=C1c1ccccc1)C1C(=O)N(CCCCN3CCN(c4ncccn4)CC3)C(=O)C12", "note": "(configuration not stated)", "values": [
      {"measurement": "Activity", "setting": "[1]", "result": "inactive"}
    ]}
  ]
}
